Results taken from patent US5329010A, “Quinone derivatives” (Eisai Co., Ltd., priority 1991, dated 1994).

Tests used:
[1] = tested on: production of leukotriene B4 (LTB4), rat abdominal glycogenic infiltration cell; assay: Inhibitory activity against production of leukotriene B4 (LTB4) from rat abdominal infiltration cell; assay type: cell-based, rat (Fisher male); settings: 10 min, cells 5×10^6/ml, calcium ionophore A-23187 2 μg/ml, 37° C., enzyme immunoassay
Experimental: (§1) Inhibitory activity against the production of leukotriene B4 (LTB4) and thromboxane B2 (TxB2 from rat abdominal infiltration cell
(§2) 10 ml of a 6% (w/v) solution of glycogen (Type II from Oyster, Sigma) in physiological saline was injected into the abdominal cavity of a Fisher male rat having a weight of 150 to 200 g. After 20 to 24 hours, the abdominal exudation cells were recovered therefrom, washed and suspended in the Hanks' balanced salt solution (HBSS) in a concentration of 5×10^6 /ml. This suspension was poured onto a 96-well culture plate (Costar: registered trademark) in which a test drug diluted to a predetermined concentration had been put in an amount of 10 μl/well, in an amount of 100 μl/well. The resulting plate was incubated at 37° C. for 5 minutes. Calcium ionophore A-23187 [Calbiochem (registered trademark)] was added in a final concentration of 2 μg/ml. After the reaction at 37° C. for additional 10 minutes, the plate was put on ice and a BW755C solution was added in a final concentration of 100 μM. The resulting plate was centrifuged at 15000 rpm for 10 minutes. The supernatant was recovered and the amounts of LTB4 and TxB2 in the supernatant were determined by enzyme immunoassay with an EIA kit mfd. by Cayman.

[2] = tested on: production of thromboxane B2 (TxB2), rat abdominal glycogenic infiltration cell; assay: Inhibitory activity against production of thromboxane B2 (TxB2) from rat abdominal infiltration cell; assay type: cell-based, rat (Fisher male); settings: 10 min, cells 5×10^6/ml, calcium ionophore A-23187 2 μg/ml, 37° C., enzyme immunoassay
Experimental: as §1, §2
(Thromboxane A2 is very unstable to treat and naturally turns to thromboxane B2 in 10-20 seconds in the human body. Therefore, thromboxane B2 was used in the tests above).

[3] = Repetitive Oral Administration Test for 4 Weeks on Dogs; set-up: species or system dog (female beagle); settings: in vivo, concluded after rat and dog tests, read-out: toxicologically non-influential dose
Experimental: Repetitive Oral Administration Test for 4 Weeks on Dogs
30 and 100 mg/kg of the compound obtained in the Example 3 was orally administered to female beagles aged 8 months (each group consisting of 2 animals) for 4 weeks. This compound was triturated with lactose and administered once a day.
During the administration period, the general conditions of the animals were observed and the body weight and feed intake were measured. After the completion of the first, seventh and final administrations, hemo-biochemical examination was effected. After the completion of the seventh and final administrations, further, hematological examination and urinalysis were effected. Furthermore, autopsy was effected and organs were weighed after the final administration. Livers, kidneys and adrenal bodies were patho-histologically examined under an optical microscope.

[4] = Repetitive Oral Administration Test for 4 Weeks on Rats; assay type: in vivo, rat (female Slc:SD); settings: once a day, each of 30 and 100 mg/kg
Experimental: Repetitive Oral Administration Test for 4 Weeks on Rats
30 and 100 mg/kg of the compound obtained in the Example 3 was orally administered to female Slc:SD rats aged 7 weeks (each group consisting of 5 animals) for 4 weeks. This compound was suspended in a 0.5 wt. % aqueous solution of methylcellulose and administered once a day.
During the administration period, the general conditions of the animals were observed and the body weight and feed intake were measured. After the completion of the final administration, hematological examination, hemo-biochemical examination, urinalysis and autopsy were effected and organs were weighed. Further, livers and kidneys were patho-histologicallyexamined under an optical microscope.

IC50 [1] | IC50 [2] | SMILES | NOAEL at 672 h [3] | change in general conditions, body weight, feed intake, hematology, hemo-biochemistry, urinalysis, autopsy, organ weight, histology [4]
1390 nM | 90 nM | CCCCOc1c(C)c(OC)c(C)c(/C=C(\CCCCCc2cccnc2)C(=O)OCC)c1OC [Ex. 7] | – | –
7860 nM | 460 nM | COc1c(C)c(O)c(/C=C(\CCCCCc2cccnc2)C(=O)O)c(C)c1O [Ex. 4, (E)-3-(2,5-Dihydroxy-4-methoxy-3,6-dimethylphenyl)-2-[5-(3-pyridyl)pentyl]-2-propenoic acid] | – | –
3160 nM | 160 nM | CCCCCCCOc1c(C)c(OC)c(C)c(/C=C(\CCCCCc2cccnc2)C(=O)OCC)c1OC [Ex. 9] | – | –
3160 nM | 480 nM | CCCCCCCOc1c(C)c(OC)c(/C=C(\CCCCCc2cccnc2)C(=O)OCC)c(C)c1OC [Ex. 5] | – | –
320 nM | 420 nM | CCOC(=O)/C(=C/c1c(C)c(OC)c(OC)c(C)c1OC)CCCc1cccnc1 [Ex. 10] | – | –

SMILES | IC50 [1] | IC50 [2] | NOAEL at 672 h [3] | change in general conditions, body weight, feed intake, hematology, hemo-biochemistry, urinalysis, autopsy, organ weight, histology [4]
COC1=C(C)C(=O)C(/C=C(\CCCCCc2cccnc2)C(=O)O)=C(C)C1=O [Ex. 3, (E)-3-(2-Methoxy-3,6-dimethyl-1,4-benzoquinon-5-yl)-2-[5-(3-pyridyl)pentyl]-2-propenoic acid] | 1160 nM | 50 nM | 100 mg/kg | No change was observed
